Tests used:
[1] = system: fibres containing noradrenaline in the prefrontal cortex; assay: Density of noradrenaline-containing fibres in prefrontal cortex after sequential treatment; assay type: in vivo, Balb/c mice
Procedure: (§1) The anatomical data presented in table 1 below were obtained three days after a single injection or after a sequential treatment of five injections at a rate of one injection every three days. Immunopositive cells for tyrosine hydroxylase (TH) and fibres containing noradrenaline were identified by immunocytochemistry in the examined brain areas. Sleep records were made on a group of ten Balb/c mice. The electroencephalogram for each animal was recorded continuously for five days for acquisition of basal data about the wake-sleep cycle. Five animals were then treated by five IP injections every three days starting from day 5 until day 17 of the experiment. The other five animals were injected with the excipient at the same time After the last injection, all mice were deprived of sleep for 6 hours and records went on for another two consecutive days to measure the total REM sleep recovery. The given BC19 dose is 20 mg/kg for each injection, in all these experiments.

[2] = system: cells expressing hypocretine in the hypothalamus; assay: Number of hypocretine-expressing neurones in hypothalamus after IP injection; assay type: in vivo, Balb/c mice
[3] = system: mice; settings: mouse, in vivo, iv
Procedure: Acute toxicity is determined on batches of 10 male and female mice, weighing from 20 to 22 g, fasting since the previous evening.
The product is administered intravenously, in solution in physiological saline solution, to which a few drops of hydrochloric acid have been added (products to be tested are then in hydrochloric solution).
Mortality is recorded daily for one week. Values of the lethal doses 50 (LD 50) were determined using the method given by Lichfield J. T. and Wilcoxon F. (J. Pharm. Exp. Therap. 96:99, 1949).

[4] = system: Balb/c mice; assay: REM sleep recovery after sleep deprivation (electroencephalogram records); assay type: in vivo
Procedure: as §1

[5] = system: immunopositive neurones for TH in LC; assay: Immunocytochemistry of tyrosine hydroxylase immunopositive neurones in locus caeruleus after IP injection; assay type: in vivo, Balb/c mice
Procedure: as §1

[6] = sacrifice 3 days after a single IP injection (20 mg/kg), Balb/c mice

## OC1CC2CCCN3CCc4c(n1c1ccccc41)C23 (racemic) [BC19, 14,15-dihydro 20,21-dinoreburnamenin14-ol]
[1]; Mus musculus, 72 h, sequential treatment: five IP injections, one every three days, 20 mg/kg, Balb/c mice, read-out: Density of fibres containing noradrenaline in the prefrontal cortex, % of controls
  activity at 20 mg/kg: 156%
[1]; injected into Balb/c mice
  Effect on noradrenergic innervation in the prefrontal cortex (in words): restoring noradrenergic innervation in the prefrontal cortex
[1]; sequential treatment: five IP injections, one every three days, 20 mg/kg, Balb/c mice
  Density of fibres containing noradrenaline in the prefrontal cortex: 0.050 ± 0.003 μm/μm^2
[2]; injected into Balb/c mice
  Effect on hypocretine phenotype in neurones of the hypothalamus (in words): restoring the hypocretine phenotype in a sub-population of neurones of the hypothalamus
[2]; [6]
  Number of neurones in the posterior third of the group of cells expressing hypocretine in the hypothalamus: 671 ± 24
  Number of neurones in the posterior third of the group of cells expressing hypocretine in the hypothalamus, % of controls: (121 ± 4%)
[3]
  Acute toxicity (mortality, LD 50): did not demonstrate any toxicity
[4]; Mus musculus, deprived mice (6 hours sleep deprivation), after five IP injections every three days, 20 mg/kg, Balb/c mice, read-out: Duration of REM sleep during the recovery period, % of controls without sleep deprivation
  activity at 20 mg/kg: 151 ± 11%
[4]; deprived mice (6 hours sleep deprivation), after five IP injections every three days, 20 mg/kg, Balb/c mice
  Duration of REM sleep during the recovery period: 110 ± 8 mn
[4]; injected into Balb/c mice
  Effect on recovery of REM sleep after sleep privation (in words): reversing the inability of these consanguine mice to recover REM
[5]; Mus musculus, 72 h, sacrifice 3 days after a single IP injection (20 mg/kg), Balb/c mice, read-out: Total number of immunopositive neurones for TH in LC, % of controls
  activity at 20 mg/kg: 135%
[5]; injected into Balb/c mice
  Effect on noradrenergic phenotype in locus caeruleus (in words): restoring the noradrenergic phenotype in a significant population of locus caeruleus
[5]; [6]
  Total number of immunopositive neurones for TH in LC: 1228 ± 24

— patent US20130178493A1, “USE OF 14,15-DIHYDRO-20,21-DINOREBURNAMENIN-14-OL FOR THE TREATMENT AND/OR PREVENTION OF SERIOUS DEPRESSION AND SLEEP/WAKING CYCLE DISORDERS” (BIOCORTECH, priority 2004, published 2013)
